# Literature values, collected in patent US20040170686A1, “Suspension vehicle for coated drug particles” (priority 2003, published 2004).
# Test system: gram-positive organisms
# Conditions: gram-positive organisms incl. Staphylococcus, Streptococcus, Enterococcus, Bacillus, Corynebacterium
compound,measurement,value
"CC(=O)NC[C@H]1CN(c2ccc(N3CCOCC3)c(F)c2)C(=O)O1 [Linezolid, linezolid]",antibacterial activity,strong antibacterial activity
